By Ki is commonly meant a dissociation constant, usually derived from enzyme kinetics or from competition with a known ligand. Usually IC50 stands for the concentration that gives 50% inhibition.

Here are results for 13 molecules from US20240083904A1, “ANTAGONISTS OF THE ADENOSINE A2A RECEPTOR” (AdoRx Therapeutics Limited, priority 2020, published 2024).

In assay [1] the target is human Adenosine A3 receptor (Homo sapiens (Human), UniProt P0DMS8). Nature of the assay: Adenosine receptor TR-FRET binding assay (A3). The note with it: CHO cell membranes, 100 nM CA200645, Ki from IC50 by Cheng and Prusoff. Here is the method: (§1) All FRET binding experiments were conducted at room temperature in white 384-well plates, in assay binding buffer containing 1× LabMed (Cisbio, France), 100 μg/mL saponin, 1% DMSO and 0.02% pluronic acid. Binding of the fluorescently labelled Adenosine receptor antagonist XAC (CA200645, FRET acceptor) to terbium-labelled A1, A2a, A2b and A3 adenosine receptors (FRET donors) was detected by time-resolved FRET due to the close proximity of the donor and acceptor in a binding event. To investigate the ability of unlabelled test compounds to bind to Adenosine A1, A2a, A2b and A3 receptors, dose response curves were constructed that determined the ability of a range of concentrations to inhibit the binding of 30 nM CA200645 to the A2b receptor and 100 nM CA200645 to the A1, A2a, and A3 receptor.
(§2) Serial dilution (1:3 dilutions) of test compounds in neat DMSO and transfer of a 400 nL sample of test compound into the assay plate was carried out using the Mosquito (TTP Labtech, UK). The compound samples were incubated for 2 hours at room temperature with a fixed concentration of CA200645 defined for each receptor (see above) and CHO cell membranes containing the human Adenosine A1 (0.5 μg/well), A2a (0.3 μg/well), A2b (1 μg/well) or A3 (1 μg/well) receptor in 40 μL of assay buffer. Total and non-specific binding of CA200645 was determined in the absence and presence of 10 μM XAC, respectively. Following 2 hours incubation, the level of CA200645 binding was detected on a Pherastar FSX (BMG Labtech, Germany) using standard TR-FRET settings. The terbium donor was excited with three laser flashes at a wavelength of 337 nm, and donor and acceptor emission was detected at 620 nm and 665 nm wavelengths, respectively. FRET ratios were obtained by multiplying the acceptor/donor ratio value by 10,000. Specific binding was determined by subtracting the non-specific binding FRET ratio from the total binding FRET ratio. Compound IC50 curves were analysed using GraphPad Prism 7.0 (GraphPad, USA) and Ki affinity values were determined from the obtained IC50 values using the method of Cheng and Prusoff.

Assay [2] concerns the target human Adenosine A2a receptor (Homo sapiens (Human), UniProt P29274). Briefly: Adenosine receptor TR-FRET binding assay (A2a). The note with it: CHO cell membranes, 100 nM CA200645, Ki from IC50 by Cheng and Prusoff. The procedure: as §1, §2
Assay [3] deals with human Adenosine A1 receptor (Homo sapiens (Human), UniProt P30542). Briefly: Adenosine receptor TR-FRET binding assay (A1). The conditions noted are these: CHO cell membranes, 100 nM CA200645, Ki from IC50 by Cheng and Prusoff. The procedure:
as §1, §2
(Time-resolved FRET reads energy transfer from a long-lived donor to a nearby acceptor.)

In assay [4] the target is human Adenosine A2b receptor (Homo sapiens (Human), UniProt P29275). Nature of the assay: Adenosine receptor TR-FRET binding assay (A2b). The conditions noted are these: CHO cell membranes, 30 nM CA200645, Ki from IC50 by Cheng and Prusoff. The procedure: as §1, §2
Assay [5] has as its system pCREB in CD8+ T cells in human whole blood. Nature of the assay: Measurement of pCREB in CD8+ T cells in human whole blood. Format: cell-based. The note with it: T-cell, 3 μM NECA, rolipram, FACS. Here is the method: Heparinised human whole blood was pre-incubated at 37° C. with serial dilutions of A2a antagonists for 20 min. and the phosphodiesterase inhibitor rolipram to amplify the pCREB response. The adenosine receptor agonist NECA is then added at a final concentration of 3 μM and following a 60 min incubation the blood is fixed and red blood cells lysed. White blood cells are isolated, permeabilized and stained with directly conjugated fluorescent antibodies to phospho-CREB (Alexa Fluor 488) and CD8 (Alexa Fluor 647) and the level of phospho-CREB in CD8+ T cells is measured by FACS using a BD Accuri C6 Flow Cytometer.

Assay [6] relates to human PBMCs. Nature of the assay: CD3/CD28 stimulated IL-2 release NECA reversal assay in human PBMCs. Format: cell-based. The conditions noted are these: PBMC, 1 uM NECA, 24 hours. Here is the method: Blood is drawn from healthy volunteers using sodium citrate as the anticoagulant (0.3% final concentration). After centrifugation of the blood over Histopaque-1077, PBMCs are collected from the Histopaque/plasma interface and washed twice in PBS (300 g for 10 mins at room temp). Cells are plated at 50,000 cells/well in 150 μl RPMI/10% FCS in 96-well cell culture plates that have been precoated with 1 ug/ml CD3 antibody. 50 μl diluted compound mix is added to the cells, to obtain final concentrations of 1 μg/ml CD28 antibody, 1 uM NECA and 0.003-10 μM adenosine receptor antagonist. Assay plates are incubated for 24 hours at 37° C. in a humidified incubator. Culture supernatant is tested for IL-2 levels using the human IL-2 Tissue Culture Kit (Meso Scale Discovery). Data for dose-response curves is calculated as % inhibition with 100% inhibition defined from no agonist control wells (+CD3/28-NECA)

The structures appear in SMILES notation.

Chain of human Adenosine A2a receptor (P29274 whole entry): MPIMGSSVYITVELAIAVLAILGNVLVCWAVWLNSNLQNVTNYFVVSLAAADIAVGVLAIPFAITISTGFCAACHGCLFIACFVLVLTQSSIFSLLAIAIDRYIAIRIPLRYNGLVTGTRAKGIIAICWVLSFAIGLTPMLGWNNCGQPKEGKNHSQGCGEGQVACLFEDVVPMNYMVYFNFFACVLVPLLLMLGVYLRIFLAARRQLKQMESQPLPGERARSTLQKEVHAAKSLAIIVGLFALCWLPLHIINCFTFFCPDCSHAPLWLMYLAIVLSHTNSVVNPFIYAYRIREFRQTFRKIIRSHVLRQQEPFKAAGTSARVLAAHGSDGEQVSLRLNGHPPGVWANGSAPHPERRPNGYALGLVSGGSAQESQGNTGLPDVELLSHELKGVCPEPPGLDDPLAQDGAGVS
Chain of human Adenosine A3 receptor (P0DMS8 whole entry): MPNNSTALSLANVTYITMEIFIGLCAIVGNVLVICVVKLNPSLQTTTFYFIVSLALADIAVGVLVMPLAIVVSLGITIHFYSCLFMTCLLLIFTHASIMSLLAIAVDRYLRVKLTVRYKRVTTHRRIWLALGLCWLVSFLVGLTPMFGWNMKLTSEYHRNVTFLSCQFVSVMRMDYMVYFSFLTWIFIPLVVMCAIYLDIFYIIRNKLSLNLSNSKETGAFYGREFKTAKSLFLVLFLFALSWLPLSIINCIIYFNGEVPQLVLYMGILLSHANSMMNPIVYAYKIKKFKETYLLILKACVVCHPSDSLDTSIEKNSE
Chain of human Adenosine A2b receptor (P29275 whole entry): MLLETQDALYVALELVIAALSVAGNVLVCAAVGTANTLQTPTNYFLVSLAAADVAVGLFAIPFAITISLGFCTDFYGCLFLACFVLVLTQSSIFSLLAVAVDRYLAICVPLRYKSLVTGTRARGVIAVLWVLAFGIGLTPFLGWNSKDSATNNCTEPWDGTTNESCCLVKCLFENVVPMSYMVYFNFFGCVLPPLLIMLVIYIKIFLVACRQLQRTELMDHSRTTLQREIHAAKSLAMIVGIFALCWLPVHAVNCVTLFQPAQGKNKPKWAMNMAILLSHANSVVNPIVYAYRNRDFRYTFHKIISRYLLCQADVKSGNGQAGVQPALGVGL
Chain of human Adenosine A1 receptor (P30542 whole entry): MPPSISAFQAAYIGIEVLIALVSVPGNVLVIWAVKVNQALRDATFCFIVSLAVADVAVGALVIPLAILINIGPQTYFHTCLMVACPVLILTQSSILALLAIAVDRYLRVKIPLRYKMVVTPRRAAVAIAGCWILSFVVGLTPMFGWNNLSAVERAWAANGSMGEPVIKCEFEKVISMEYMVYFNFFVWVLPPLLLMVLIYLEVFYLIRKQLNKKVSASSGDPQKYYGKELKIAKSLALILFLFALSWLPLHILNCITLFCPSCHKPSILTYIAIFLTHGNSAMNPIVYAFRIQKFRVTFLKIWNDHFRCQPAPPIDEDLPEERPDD

`CC(C)(O)CNC(=O)c1ccc2nc(-c3cccc(C#N)c3)c(Br)n2n1` [Example 1, 3-Bromo-2-(3-cyanophenyl)-N-(2-hydroxy-2-methyl-propyl)imidazo[1,2-b]pyridazine-6-carboxamide]: the inhibition constant (Ki) is above 1000 nM in assay [1], 10.9 nM in assay [2], 4000 nM in assay [3] and 500 nM in assay [4].

As to `CC(=O)c1cc(-c2c(-c3cccc(C#N)c3)nc3ccc(C(=O)NCC(C)(C)O)nn23)cc(C)n1` [Example 2, 3-(2-Acetyl-6-methyl-4-pyridyl)-2-(3-cyanophenyl)-N-(2-hydroxy-2-methyl-propyl)imidazo[1,2-b]pyridazine-6-carboxamide], the Ki in assay [1] is above 1000 nM; in assay [2], 3.9 nM; in assay [3], 1830 nM; in assay [4], 1580 nM.

Regarding `Cc1cc(-c2c(-c3cccc(C#N)c3)nc3ccc(C(=O)NCC(C)(C)O)nn23)cc(C)n1` [Example 2.1, 2-(3-Cyanophenyl)-3-(2,6-dimethyl-4-pyridyl)-N-(2-hydroxy-2-methyl-propyl)imidazo[1,2-b]pyridazine-6-carboxamide], the IC50 in assay [5] was 122 nM; in assay [6], 13.8 nM. In addition, the inhibition constant (Ki) was above 1000 nM in assay [1], 0.79 nM in assay [2], 667 nM in assay [3] and 212 nM in assay [4].

For `Cc1cc(-c2c(-c3cccc(C#N)c3)nc3ccc(C(=O)NCC(C)(C)O)nn23)cc(Cl)n1` [Example 2.2, 3-(2-Chloro-6-methyl-4-pyridyl)-2-(3-cyanophenyl)-N-(2-hydroxy-2-methyl-propyl)imidazo[1,2-b]pyridazine-6-carboxamide], the IC50 in assay [5] came to 496 nM; in assay [6] it was 39 nM. The Ki is above 1000 nM in assay [1], 0.5 nM in assay [2], 363 nM in assay [3] and 27 nM in assay [4].

Turning to `Cc1cc(-c2c(-c3cccc(C#N)c3)nc3ccc(C(=O)NCC(C)(C)O)nn23)cc(C(F)(F)F)n1` [Example 2.3, 2-(3-Cyanophenyl)-N-(2-hydroxy-2-methyl-propyl)-3-[2-methyl-6-(trifluoromethyl)-4-pyridyl]imidazo[1,2-b]pyridazine-6-carboxamide], the half-maximal inhibitory concentration (IC50) in assay [5] worked out at 282 nM; in assay [6] it was 7.3 nM. Also, the inhibition constant (Ki) was above 1000 nM in assay [1], 0.46 nM in assay [2], 95 nM in assay [3] and 18 nM in assay [4].

In the case of `COc1cc(-c2c(-c3cccc(C#N)c3)nc3ccc(C(=O)NCC(C)(C)O)nn23)cc(C)n1` [Example 2.4, 2-(3-Cyanophenyl)-N-(2-hydroxy-2-methyl-propyl)-3-(2-methoxy-6-methyl-4-pyridyl)imidazo[1,2-b]pyridazine-6-carboxamide], the concentration for half-maximal inhibition (IC50) in assay [5] turned out to be 2040 nM; in assay [6], 13.5 nM. In addition, the Ki is above 1000 nM in assay [1], 2.3 nM in assay [2], 286 nM in assay [3] and 156 nM in assay [4].

Take `Cc1cc(-c2c(-c3cccc(C#N)c3)nc3ccc(C(=O)N[C@@H](C)C(C)(C)O)nn23)cc(C(F)F)n1` [Example 2.5, 2-(3-Cyanophenyl)-3-[2-(difluoromethyl)-6-methyl-4-pyridyl]-N-[(1S)-2-hydroxy-1,2-dimethyl-propyl]imidazo[1,2-b]pyridazine-6-carboxamide]: the IC50 in assay [5] was found to be 105 nM; in assay [6] it was 1.1 nM. Moreover, the Ki in assay [1] was above 1000 nM; in assay [2], 0.32 nM; in assay [3] it was 78 nM; in assay [4] it was 34 nM.

Turning to `Cc1cc(-c2c(-c3cccc(C#N)c3)nc3ccc(C(=O)N[C@@H](C)C(C)(C)O)nn23)cc(C(F)(F)F)n1` [Example 2.6, 2-(3-Cyanophenyl)-N-[(1S)-2-hydroxy-1,2-dimethyl-propyl]-3-[2-methyl-6-(trifluoromethyl)-4-pyridyl]imidazo[1,2-b]pyridazine-6-carboxamide], the results for the IC50 in assay [5] and in assay [6] were 58 nM and 0.6 nM, respectively. Further, the Ki was above 1000 nM in assay [1], 0.17 nM in assay [2], 30 nM in assay [3] and 18 nM in assay [4].

As for `Cc1cc(-c2c(-c3cccc(C#N)c3)nc3ccc(C(=O)N[C@H](C)C(C)(C)O)nn23)cc(C(F)(F)F)n1` [Example 2.7, 2-(3-Cyanophenyl)-N-[(1R)-2-hydroxy-1,2-dimethyl-propyl]-3-[2-methyl-6-(trifluoromethyl)-4-pyridyl]imidazo[1,2-b]pyridazine-6-carboxamide], the IC50 in assay [5] came out at 499 nM; in assay [6], 10.5 nM. Further, the inhibition constant Ki in assay [1] was above 1000 nM; in assay [2], 0.34 nM; in assay [3], 324 nM; in assay [4] it was 79 nM.

With `COc1cc(-c2c(-c3cccc(C#N)c3)nc3ccc(C(=O)N[C@@H](C)C(C)(C)O)nn23)cc(C)n1` [Example 2.8, 2-(3-Cyanophenyl)-N-[(1S)-2-hydroxy-1,2-dimethyl-propyl]-3-(2-methoxy-6-methyl-4-pyridyl)imidazo[1,2-b]pyridazine-6-carboxamide], the IC50 in assay [5] was 472 nM; in assay [6], 4.6 nM. The Ki in assay [1] was above 1000 nM; in assay [2] it was 0.19 nM; in assay [3], 243 nM; in assay [4] it was 285 nM.

In the case of `Cc1cc(-c2c(-c3cccc(C#N)c3)nc3ccc(C(=O)N[C@@H](C)C(C)(C)O)nn23)cc(Cl)n1` [Example 2.9, 3-(2-Chloro-6-methyl-4-pyridyl)-2-(3-cyanophenyl)-N-[(1S)-2-hydroxy-1,2-dimethyl-propyl]imidazo[1,2-b]pyridazine-6-carboxamide], the half-maximal inhibitory concentration (IC50) is 168 nM in assay [5] and 5.3 nM in assay [6]. Also, the Ki in assay [1] is above 1000 nM; in assay [2], 0.2 nM; in assay [3], 96 nM; in assay [4], 20 nM.

In the case of `Cc1cc(-c2c(-c3cccc(C#N)c3)nc3ccc(C(=O)N[C@@H](C)C(C)(C)O)nn23)cc(C)n1` [Example 3, 2-(3-Cyanophenyl)-3-(2,6-dimethyl-4-pyridyl)-N-[(1S)-2-hydroxy-1,2-dimethyl-propyl]imidazo[1,2-b]pyridazine-6-carboxamide], the results for the IC50 in assay [5] and in assay [6] were 61 nM and 1.7 nM, respectively. The Ki was above 1000 nM in assay [1], 0.16 nM in assay [2], 71 nM in assay [3] and 31 nM in assay [4].

Take `Cc1cc(-c2c(-c3cccc(C#N)c3)nc3ccc(C(=O)N[C@@H](C)C(C)(C)O)nn23)cc(CO)n1` [Example 6, 2-(3-Cyanophenyl)-N-[(1S)-2-hydroxy-1,2-dimethyl-propyl]-3-[2-(hydroxymethyl)-6-methyl-4-pyridyl]imidazo[1,2-b]pyridazine-6-carboxamide]: the Ki is above 1000 nM in assay [1], 0.68 nM in assay [2], 120 nM in assay [3] and 49 nM in assay [4].
